Data from ChEMBL document CHEMBL1139330, “Synthesis and neuropharmacological evaluation of esters of R(-)-N-alkyl-11-hydroxy-2-methoxynoraporphines” (Bioorg Med Chem Lett, 2009).
The source made the active and inactive calls. The rule behind the calls is not given here.

Assays:
[1] = Selectivity ratio of Ki for dopamine D1 receptor to Ki for dopamine D2 receptor in rat forebrain
D(2) dopamine receptor = D(2) dopamine receptor (Rattus norvegicus, UniProt P61169); assay: Displacement of [3H]nemonapride from dopamine D2 receptor in rat forebrain
D(2) dopamine receptor, sequence (P61169 whole entry): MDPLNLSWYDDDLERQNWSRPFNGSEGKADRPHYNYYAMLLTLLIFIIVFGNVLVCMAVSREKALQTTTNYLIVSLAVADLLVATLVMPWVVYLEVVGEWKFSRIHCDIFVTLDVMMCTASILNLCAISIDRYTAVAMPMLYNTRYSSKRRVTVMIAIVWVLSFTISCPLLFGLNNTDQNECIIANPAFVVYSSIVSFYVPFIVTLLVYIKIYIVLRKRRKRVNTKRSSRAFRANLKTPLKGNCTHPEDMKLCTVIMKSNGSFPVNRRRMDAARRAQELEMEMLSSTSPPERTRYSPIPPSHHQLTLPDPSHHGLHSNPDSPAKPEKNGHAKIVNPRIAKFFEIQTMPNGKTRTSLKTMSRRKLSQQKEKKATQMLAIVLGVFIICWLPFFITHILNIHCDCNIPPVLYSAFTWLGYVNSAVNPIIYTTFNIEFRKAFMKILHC

D(1A) dopamine receptor = D(1A) dopamine receptor (Rattus norvegicus, UniProt P18901); assay: Displacement of [3H]SCH23390 from dopamine D1 receptor in rat forebrain
D(1A) dopamine receptor, sequence (P18901 whole entry): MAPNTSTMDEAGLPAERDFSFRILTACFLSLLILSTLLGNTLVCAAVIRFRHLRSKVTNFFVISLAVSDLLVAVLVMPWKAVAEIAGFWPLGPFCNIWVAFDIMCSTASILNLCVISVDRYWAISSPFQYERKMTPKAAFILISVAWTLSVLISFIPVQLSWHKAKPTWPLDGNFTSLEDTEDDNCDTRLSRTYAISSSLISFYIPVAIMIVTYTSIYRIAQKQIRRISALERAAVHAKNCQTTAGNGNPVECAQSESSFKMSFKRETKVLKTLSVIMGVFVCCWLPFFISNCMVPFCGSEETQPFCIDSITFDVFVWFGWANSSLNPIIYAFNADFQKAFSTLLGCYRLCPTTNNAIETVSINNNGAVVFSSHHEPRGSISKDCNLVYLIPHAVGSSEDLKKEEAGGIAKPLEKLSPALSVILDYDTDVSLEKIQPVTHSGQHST

Rattus norvegicus [2] = assay: Induction of locomotor activity in adult rat at 4 umol/kg, ip after 12 to 24 hrs; type: functional, organism-based
Rattus norvegicus [3] = assay: Toxicity in adult rat assessed as induction of sedation at 4 umol/kg, ip after 12 to 20 hrs; type: organism-based; conditions: in vivo

SMILES	ratio [1]	Ki (D(2) dopamine receptor) [nM]	Ki (D(1A) dopamine receptor) [nM]	Activity (Rattus norvegicus [2])	Activity (Rattus norvegicus [3])
COc1cc2c3c(c1)-c1c(O)cccc1C[C@H]3N(C)CC2	0.2	–	–	–	–
COc1cc2c3c(c1)-c1c(cccc1OC(C)=O)C[C@H]3N(C)CC2	3	165	526	–	–
CCCCC(=O)Oc1cccc2c1-c1cc(OC)cc3c1[C@@H](C2)N(C)CC3	8	192	1480	–	–
CCCN1CCc2cc(OC)cc3c2[C@H]1Cc1cccc(OC(C)=O)c1-3	> 529	18.9	> 10000	Active	–
CN1CCc2cccc3c2[C@H]1Cc1ccc(O)c(O)c1-3 [APOMORPHINE]	532	–	–	–	–
CCCN1CCc2cc(OC)cc3c2[C@H]1Cc1cccc(O)c1-3	38	–	–	–	–
CCCCC(=O)Oc1cccc2c1-c1cccc3c1[C@@H](C2)N(CCC)CC3	> 58	–	> 20000	–	–
CCCCC(=O)Oc1cccc2c1-c1cc(OC)cc3c1[C@@H](C2)N(CCC)CC3	> 112	89	> 10000	inactive	Toxic
CCCN1CCc2cccc3c2[C@H]1Cc1cccc(OC(C)=O)c1-3	> 138	–	> 10000	–	–
